Experimental data published in publication PMC7468908 (Nutrients, 2020).
Read-outs that look alike come from different tables or passages of the source.

Legend:
CYP2C19 = biological target: T1, CYP2C19 (Homo sapiens, UniProt P33261); experiment: CYP2C19-catalyzed S-mephenytoin hydroxylation (CypExpress kit, HPLC); type: biochemical; conditions: for concentration inducing statistically significant (p < 0.01) decrease in metabolite formation, CYP2C19: substrate 5 µM S-mephenytoin
T1 construct: purchased Sigma-Aldrich
T1 sequence (P33261 whole entry): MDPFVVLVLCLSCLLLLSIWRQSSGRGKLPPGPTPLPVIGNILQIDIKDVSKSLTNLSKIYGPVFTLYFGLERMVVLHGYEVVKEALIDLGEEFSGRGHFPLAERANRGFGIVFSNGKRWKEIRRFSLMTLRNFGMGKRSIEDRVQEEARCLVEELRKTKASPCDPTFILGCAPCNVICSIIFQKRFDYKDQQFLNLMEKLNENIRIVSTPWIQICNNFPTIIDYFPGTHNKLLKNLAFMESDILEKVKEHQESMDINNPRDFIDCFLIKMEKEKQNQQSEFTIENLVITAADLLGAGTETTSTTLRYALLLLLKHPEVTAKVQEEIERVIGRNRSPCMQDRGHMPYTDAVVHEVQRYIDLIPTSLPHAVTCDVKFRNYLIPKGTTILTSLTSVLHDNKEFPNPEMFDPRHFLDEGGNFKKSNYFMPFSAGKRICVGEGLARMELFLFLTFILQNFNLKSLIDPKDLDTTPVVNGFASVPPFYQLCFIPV
Protocol: (§1) Inhibition of CYP2C19 [47], 3A4 [48], and 2D6 [49] by Q and its conjugates was tested based on our previously reported methods, without modifications.
(§2) S-mephenytoin and 4-hydroxymephenytoin (CYP2C19 assay), testosterone and 6β-hydroxytestosterone (CYP3A4 assay), as well as dextromethorphan and dextrorphan (CYP2D6 assay) were quantified using the previously described methods, with minor modifications.
In CYP2C19 assay, the mobile phase contained acetonitrile, methanol (VWR), and sodium phosphate buffer (10 mM, pH 4.55) (17:10:73 v/v%). Samples were driven through a guard column (Phenomenex Security Guard C8, 4.0 × 3.0 mm) linked to an analytical column (Phenomenex C8 100 × 4.6 mm; 2.6 µm), with a 1 mL/min flow rate, at room temperature. After the isocratic elution, S-mephenytoin and 4-hydroxymephenytoin were detected at 230 nm.

CYP3A4 = biological target: T2, CYP3A4 (Homo sapiens, UniProt P08684); experiment: CYP3A4-catalyzed testosterone hydroxylation (CypExpress kit, HPLC); type: biochemical; conditions: for concentration inducing statistically significant (p < 0.01) decrease in metabolite formation, CYP3A4: substrate 5 µM testosterone
T2 construct: purchased Sigma-Aldrich
T2 sequence (P08684 whole entry): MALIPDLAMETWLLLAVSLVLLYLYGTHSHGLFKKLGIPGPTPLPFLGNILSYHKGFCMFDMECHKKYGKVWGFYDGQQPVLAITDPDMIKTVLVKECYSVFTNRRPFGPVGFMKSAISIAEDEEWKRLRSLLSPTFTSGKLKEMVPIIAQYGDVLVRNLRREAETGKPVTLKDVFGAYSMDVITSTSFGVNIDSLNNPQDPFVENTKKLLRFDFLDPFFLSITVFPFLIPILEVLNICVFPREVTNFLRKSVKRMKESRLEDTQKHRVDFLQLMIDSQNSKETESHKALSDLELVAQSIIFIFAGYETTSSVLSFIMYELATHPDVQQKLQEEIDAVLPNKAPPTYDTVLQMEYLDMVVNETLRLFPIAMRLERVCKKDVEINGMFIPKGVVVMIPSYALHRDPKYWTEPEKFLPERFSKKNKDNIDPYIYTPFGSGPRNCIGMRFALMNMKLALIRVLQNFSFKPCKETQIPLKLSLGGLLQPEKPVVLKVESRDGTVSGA
Protocol: as §1, §2
In the CYP3A4 assay, samples were driven through a guard column (Security Guard™ Catridge C18 4.0 × 3.0 mm; Phenomenex, Torrance, CA, USA) linked to an analytical column (Kinetex C18 150 × 4.6 mm; 5 µm; Phenomenex, Torrance, CA, USA), with a 1.2 mL/min flow rate, at room temperature. The mobile phase contained methanol (VWR, Budapest, Hungary), water, and acetic acid (53:46:1 v/v%). After the isocratic elution, testosterone and 6β-hydroxytestosterone were detected at 240 nm.

CYP2D6 = biological target: T3, CYP2D6 (Homo sapiens, UniProt P10635); experiment: CYP2D6-catalyzed dextromethorphan O-demethylation (CypExpress kit, HPLC); type: biochemical; conditions: up to 30 μM flavonoid, substrate 5 µM dextromethorphan
T3 construct: purchased Sigma-Aldrich
T3 sequence (P10635 whole entry): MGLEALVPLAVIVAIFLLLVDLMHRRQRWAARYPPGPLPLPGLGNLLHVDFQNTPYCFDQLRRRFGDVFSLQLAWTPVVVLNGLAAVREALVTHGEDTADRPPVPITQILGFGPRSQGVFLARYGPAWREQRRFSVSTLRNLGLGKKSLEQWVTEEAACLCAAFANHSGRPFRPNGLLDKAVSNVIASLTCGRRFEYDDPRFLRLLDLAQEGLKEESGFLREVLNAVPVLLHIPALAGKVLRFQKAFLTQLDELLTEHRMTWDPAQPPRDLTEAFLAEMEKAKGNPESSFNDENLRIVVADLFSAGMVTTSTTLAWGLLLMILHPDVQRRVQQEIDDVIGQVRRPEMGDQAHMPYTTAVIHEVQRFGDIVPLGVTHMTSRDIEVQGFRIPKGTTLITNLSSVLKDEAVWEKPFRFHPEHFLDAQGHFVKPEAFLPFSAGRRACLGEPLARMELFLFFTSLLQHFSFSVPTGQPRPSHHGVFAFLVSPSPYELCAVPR
Protocol: as §1, §2
In the CYP2D6 assay, samples were driven through a guard column (Security Guard C8, 4.0 × 3.0 mm; Phenomenex, Torrance, CA, USA) linked to an analytical column (Mediterranea Sea8 C8 150 × 4.6 mm; 5 µm; Teknokroma, Barcelona, Spain). The isocratic elution was performed with 1 mL/min flow rate at room temperature, the mobile phase contained acetonitrile and 6.9 mM sodium-acetate buffer (pH 4.0) (31:69 v/v%). Dextromethorphan and dextrorphan were detected at 280 nm.

OATP2B1 = biological target: T4, OATP2B1 (Homo sapiens, UniProt O94956); experiment: OATP2B1-mediated pyranine uptake in A431 cells overexpressing OATP2B1; type: cell-based; conditions: 15 min; for IC50: A431-OATP2B1 cells
T4 construct: host or cells: A431
T4 sequence (O94956 1-709): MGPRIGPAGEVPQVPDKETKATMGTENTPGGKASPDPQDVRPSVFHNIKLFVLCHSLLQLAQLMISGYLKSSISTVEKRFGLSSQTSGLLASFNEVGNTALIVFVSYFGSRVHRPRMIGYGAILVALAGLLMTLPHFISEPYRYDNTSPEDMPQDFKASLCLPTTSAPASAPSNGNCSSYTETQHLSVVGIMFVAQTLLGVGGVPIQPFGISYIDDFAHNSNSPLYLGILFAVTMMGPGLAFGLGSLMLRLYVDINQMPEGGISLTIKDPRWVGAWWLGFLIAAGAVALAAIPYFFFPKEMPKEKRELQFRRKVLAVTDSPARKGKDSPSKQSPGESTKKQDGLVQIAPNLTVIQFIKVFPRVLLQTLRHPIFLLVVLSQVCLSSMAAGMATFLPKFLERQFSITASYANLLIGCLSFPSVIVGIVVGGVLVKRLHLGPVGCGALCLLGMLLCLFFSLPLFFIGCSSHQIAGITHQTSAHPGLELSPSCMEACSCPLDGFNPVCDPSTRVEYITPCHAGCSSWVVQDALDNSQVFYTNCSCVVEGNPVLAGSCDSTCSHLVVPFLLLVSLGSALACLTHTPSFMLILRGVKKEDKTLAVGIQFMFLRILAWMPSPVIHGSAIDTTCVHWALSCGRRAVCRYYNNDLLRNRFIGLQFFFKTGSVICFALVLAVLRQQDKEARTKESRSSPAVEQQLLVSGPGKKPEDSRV
Protocol: A431 cells overexpressing human OATPs, 1A2 (BC042452, HsCD00333163), 1B1 (Gene ID: AB026257), 1B3 (BC141525, HsCD00348132) or 2B1 (BC041095.1, HsCD00378878), or their mock transfected controls, were generated as previously described. Cells were cultured in Dulbecco’s Modified Eagle Medium (DMEM; Thermo Fischer Scientific, Waltham, MA, USA) supplemented with 10% fetal bovine serum, 2 mM L-glutamine, 100 units/mL penicillin and 100 µg/mL streptomycin, at 37 °C with 5% CO2.
The interaction between flavonoids and OATPs was investigated in an indirect assay employing the fluorescent dye substrates, pyranine and sulforhodamine 101 [51, 52]. Briefly, A431 cell overexpressing OATPs, 1A2, 1B1, 1B3 or 2B1, or their mock transfected controls, were seeded on 96-well plates in a density of 8x10^4 cells/well in 200 μL DMEM one day prior to the transport measurements. […] The reaction was started by the addition of 50 μL uptake buffer containing pyranine in a final concentration of 10 μM (OATP1B1) or 20 μM (OATP1B3 and OATP2B1), or 0.5 μM sulforhodamine 101 (OATP1A2). Thereafter, cells were incubated at 37°C for 15 min (OATP1B1 and OATP2B1), 10 min (OATP1A2), or 30 min (OATP1B3). The reactions were stopped by removing the supernatants, then the cells were washed three times with ice-cold PBS. Fluorescence (in 200 μL PBS/well) was determined employing an Enspire plate reader (Perkin Elmer, Waltham, MA) ex/em: 403/517 nm (pyranine) or 586/605 nm (sulforhodamine 101). OATP-dependent transport was calculated by extracting fluorescence measured in mock transfected cells. Transport activity was calculated based on the fluorescence signal in the absence (100%) of flavonoids. Experiments were repeated at least in three biological replicates. IC50 values were calculated by Hill1 fit, using the Origin Pro8.6 software ([…]).

[1] = S-mephenytoin hydroxylation, substrate 5 µM, read-out: IC50 for CYP2C19
[2] = testosterone hydroxylation, substrate 5 µM, read-out: IC50 for CYP3A4
[3] = 20 μM pyranine, read-out: IC50 for OATP2B1

Compound | IC50 (CYP2C19; [1]) | concentration inducing statistically significant (p < 0.01) decrease in metabolite formation, CYP2C19 (CYP2C19) | concentration inducing statistically significant (p < 0.01) decrease in metabolite formation, CYP3A4 (CYP3A4) | IC50 (CYP3A4; [2]) | inhibition of CYP2D6 activity (CYP2D6) | concentration causing statistically significant (p < 0.01) inhibition, OATP2B1 (OATP2B1; 20 μM pyranine) | IC50 (OATP2B1; [3]) | IC50 (CYP2C19) | IC50 (CYP3A4) | IC50 (OATP2B1; IC50 for OATP2B1, 20 μM pyranine)
O=C(O)C1OC(Oc2c(-c3ccc(O)c(O)c3)oc3cc(O)cc(O)c3c2=O)C(O)C(O)C1O (stereo not drawn) [Q3G, quercetin-3-glucuronide] | > 30 µM | 20 µM | 20 µM | > 30 µM | did not affect | 3.1 µM | 4.85 µM | – | – | –
COc1cc(-c2oc3cc(O)cc(O)c3c(=O)c2O)ccc1O [IR, isorhamnetin] | – | 20 µM | 10 µM | – | did not affect | 0.6 µM | – | > 30 µM | > 30 µM | 0.82 µM
O=c1c(O)c(-c2ccc(O)c(O)c2)oc2cc(O)cc(O)c12 [Q, quercetin] | – | 10 µM | 5 µM | – | did not affect | 0.3 µM | 0.34 µM | – | – | –

Now from value to compound, other results behind:

IC50 (CYP2C19; [1]) | concentration inducing statistically significant (p < 0.01) decrease in metabolite formation, CYP2C19 (CYP2C19) | concentration inducing statistically significant (p < 0.01) decrease in metabolite formation, CYP3A4 (CYP3A4) | IC50 (CYP3A4; [2]) | inhibition of CYP2D6 activity (CYP2D6) | concentration causing statistically significant (p < 0.01) inhibition, OATP2B1 (OATP2B1; 20 μM pyranine) | IC50 (OATP2B1; [3]) | Compound | IC50 (CYP2C19) | IC50 (CYP3A4) | IC50 (OATP2B1; IC50 for OATP2B1, 20 μM pyranine)
> 30 µM | 20 µM | 10 µM | > 30 µM | did not affect | 1.6 µM | 4.14 µM | COc1cc(-c2oc3cc(O)cc(O)c3c(=O)c2OC2OC(C(=O)O)C(O)C(O)C2O)ccc1O (stereo not drawn) [I3G, isorhamnetin-3-glucuronide] | – | – | –
> 30 µM | 20 µM | 10 µM | > 30 µM | did not affect | 0.3 µM | 0.43 µM | O=c1c(O)c(-c2ccc(O)c(OS(=O)(=O)O)c2)oc2cc(O)cc(O)c12 [Q3′S, quercetin-3′-sulfate] | – | – | –
